Test results reported in patent US20240374739A1, “BILE ACID CONJUGATE” (Curtin University, priority 2021, published 2024).

What was measured:
[1] = test system: Neurodegenerated cells (Alzheimer's disease model); assay: ROS (reactive oxygen species) assay, Alzheimer's disease model; format: cell-based, human; conditions: AD model
Experimental: (§1) Perinatal tissue derived human stem cell model for Alzheimer's disease (AD) was prepared using proprietary protocols to test the effect of new drug entities. Drug treatment was for 24 h in all the assays.
(§2) Increase in oxidative stress is associated with accumulation of amyloid beta seen in the AD model. Increased oxidative stress and nitric oxide levels lead to apoptosis and evoke cytotoxic effects on neurons.

[2] = test system: Neurodegenerated cells (perinatal tissue derived human stem cell model for Alzheimer's disease); assay: Lactate dehydrogenase (LDH) assay, in vitro model of Alzheimer's disease; format: cell-based; conditions: probucol 20 μM, SPQ 10 μM, HA-1 10 μM, rivastigmine 2 μM, 24 hours; compared to ND cells
Experimental: as §1
LDH leakage is a well characterised marker of cellular membrane damage and increase in indicative of lactate deficit, is a hallmark of AD.

[3] = test system: Neurodegenerated cells (Parkinson's disease model); assay: Immunocytochemical localization of PD specific and neuronal markers; format: cell-based, human; conditions: fluorescence micrographs
Experimental: (§3) Perinatal tissue derived human stem cell model for Parkinson's disease (PD) was prepared using proprietary protocols to test the effect of new drug entities. Drug treatment was for 24 hours in all the assays.
For further confirmation and protein localization of neuronal, dopaminergic and PD specific neurodegenerative markers, we performed immunolocalization for synapsin I, Nurr1, TH and α-synuclein respectively.
Fluorescence micrographs of synapsin 1 positive neuronal cells were obtained and the effects of probucol, SPQ and HA-1 on neurodegeneration model with L-Dopa as positive control were compared.
Fluorescence micrographs of Nurr1 positive dopaminergic neuronal cells were obtained and the effects of probucol, SPQ and HA-1 on neurodegeneration model with L-Dopa as positive control were compared.
Fluorescence micrographs of TH positive dopaminergic neuronal cells were obtained and the effects of probucol, SPQ and HA-1 on neurodegeneration model with L-Dopa as positive control were compared.
Fluorescence micrographs of α-synuclein immunolocalization were obtained and the effects of probucol, SPQ and HA-1 on neurodegeneration model with L-Dopa as positive control were compared.

[4] = test system: Neurodegenerated cells (Alzheimer's disease model); assay: Immunocytochemical localization of AD specific and neuronal markers; format: cell-based, human; conditions: fluorescence micrographs
Experimental: as §1
For further confirmation and protein localization of the AD specific neurodegenerative markers and neuronal markers, we performed immunolocalization for BACE1 and synapsin respectively.
Fluorescence micrographs of BACE1 positive neuronal cells were obtained and the effects of probucol, SPQ and HA-1 on neurodegeneration model were compared. […] In the AD model, as expected BACE1 accumulation is clearly pronounced.
In the case of synapsin 1, a disruption in expression of synapsin protein in ND cells was observed.

[5] = test system: Neurodegenerated cells (Parkinson's disease model); assay: Greiss (nitric oxide) assay, Parkinson's disease model; format: cell-based, human; conditions: PD model
Experimental: as §3
(§4) Increase in oxidative stress associated with accumulation of α-synuclein plays a central role in disease progression. Nitric oxide enhances the aggregation of α-synuclein and accelerates disease progression. Increased oxidative stress and nitric oxide levels lead to apoptosis and evoke cytotoxic effects on neurons.

[6] = test system: Neurodegenerated cells (Alzheimer's disease model); assay: Mitochondrial membrane potential by TMRE assay, Alzheimer's disease model; format: cell-based, human; conditions: AD model; probucol 20 μM, SPQ 10 μM, HA-1 10 μM, rivastigmine 2 μM, 24 hours
Experimental: as §1
Aβ plaques are sources of toxicity that lead to severe structural and functional abnormalities in mitochondria in Alzheimer's disease. For assessing the changes in the electrophysiology and functional changes in the mitochondrial membrane potential, we used TMRE (tetramethylrhodamine ethyl ester) for quantifying changes in mitochondrial membrane potential in live cells by fluorimetry.

[7] = test system: Neurodegenerated cells (Parkinson's disease model); assay: Gene expression analysis by qRT-PCR for neuronal, dopaminergic and PD associated markers; format: cell-based, human; conditions: 24 hours drug treatment
Experimental: as §3
Gene expression levels of mature neuronal marker (Synapsin I), dopaminergic markers (Nuclear receptor related 1 (Nurr1), Dopamine transporter (DAT) and Tyrosine hydroxylase (TH)), and PD associated marker (α-synuclein) were analysed to determine the effect of probucol, SPQ, HA-1 and L-Dopa.
(A) Synapsin I, (B) Nurr1, (C) DAT, (D) TH and (E) α-synuclein. (p<0.05; *p<0.05, **p<0.001, ***p<0.0001, n=3).

[8] = test system: Neurodegenerated cells (Parkinson's disease model); assay: ROS assay, Parkinson's disease model; format: cell-based, human; conditions: PD model
Experimental: as §3, §4

[9] = test system: Neurodegenerated cells (Alzheimer's disease model); assay: Greiss (nitric oxide) assay, Alzheimer's disease model; format: cell-based, human; conditions: AD model
Experimental: as §1, §2

[10] = test system: Neurodegenerated cells (Parkinson's disease model); assay: Glutathione peroxidase / GSH activity, Parkinson's disease model; format: cell-based, human; conditions: PD model; vs neurodegeneration
Experimental: as §3
Parkinson's disease-related increase in oxidative stress is associated with mitochondrial dysfunction and subsequent decrease in the levels of brain antioxidant glutathione (GSH).
(Statistical analysis: Results are expressed in mean±SD. One-way ANOVA followed by Dunnett's post hoc test was performed to compare all columns vs neurodegeneration (p<0.05; *p<0.05, **p<0.001, ***p<0.0001, ns=non-significant, n=3).)

[11] = test system: Neurodegenerated cells (Alzheimer's disease model); assay: Glutathione peroxidase / GSH activity, Alzheimer's disease model; format: cell-based, human; conditions: AD model; vs neurodegeneration
Experimental: as §1
Alzheimer's disease-related increase in oxidative stress is associated with decrease in the levels of brain antioxidant glutathione (GSH).
(Statistical analysis: results are expressed in mean±SD. One-way ANOVA followed by Dunnett's post hoc test was performed to compare all columns vs neurodegeneration (p<0.05; *p<0.05, **p<0.001, ***p<0.0001, ns=non-significant, n=3).)

[12] = test system: Neurodegenerated cells (Alzheimer's disease model); assay: Acetylcholine (ACh) release, Amplex Red reagent-based assay, Alzheimer's disease model; format: cell-based, human; conditions: probucol 20 μM, SPQ 10 μM, HA-1 10 μM, rivastigmine 2 μM, 24 hours
Experimental: as §1
Acetylcholinesterase (AChE) that regulates hydrolysis of acetylcholine (ACh) in the brain, is an important target for treatment of Alzheimer's disease (AD), a feature of which is ACh deficiency. We assayed for AChE activity and ACh release in control, neurodegenerated AD and drug treated AD cells.

[13] = test system: Neurodegenerated cells (Alzheimer's disease model); assay: Gene expression analysis by qRT-PCR for neuronal, cholinergic and AD associated markers; format: cell-based, human; conditions: 24 h drug treatment
Experimental: as §1
For determining the expression of genes involved in AD specific neurodegeneration and neuronal markers, we analysed BACE and chAT (AD and cholinergic markers) and synapsin 1 and neuropilin (neuronal markers).

Compound	intracellular reactive oxidative stress (ROS) [1]	LDH activity / LDH release [2]	Nurr1 (immunolocalization) [3]	TH (immunolocalization) [3]	synapsin protein expression (immunolocalization) [3]	synapsin 1 protein expression (immunolocalization) [4]	nitric oxide level [5]	mitochondrial membrane potential (TMRE) [6]	DAT gene expression (qRT-PCR) [7]	TH gene expression (qRT-PCR) [7]	α-synuclein gene expression (qRT-PCR) [7]	intracellular reactive oxidative stress (ROS) [8]	nitric oxide level [9]	glutathione (GSH) activity [10]	glutathione (GSH) activity [11]	Acetylcholine (ACh) release / level [12]	BACE1 gene expression (qRT-PCR) [13]	ChAT gene expression (qRT-PCR) [13]	neuropilin gene expression (qRT-PCR) [13]	synapsin 1 (Syn) gene expression (qRT-PCR) [13]	other results
CC(=O)O[C@@H]1CC[C@@]2(C)[C@H](CC[C@@H]3[C@@H]2CC[C@]2(C)[C@@H]([C@H](C)CCC(=O)Oc4c(C(C)(C)C)cc(SC(C)(C)Sc5cc(C(C)(C)C)c(O)c(C(C)(C)C)c5)cc4C(C)(C)C)CC[C@@H]32)C1 [HA-1, 2,6-di-tert-butyl-4-((2-((3,5-di-tert-butyl-4-hydroxyphenyl)thio)propan-2-yl)thio)phenyl (4R)-4-[(3R,5R,8R,9S,10S,13R,14S,17R)-3-acetoxy-10,13-dimethyl-2,3,4,5,6,7,8,9,11,12,14,15,16,17-tetradecahydro-1H-cyclopenta[a]phenanthren-17-yl]pentanoate]	decrease the level of ROS	decreased significantly LDH activity	more pronounced	more pronounced	clear restoration of synapsin expression	clear reversal of degeneration	prevent the reduction of endogenous nitric oxide levels	maintain the mitochondrial membrane potential	increase the expression of all the dopaminergic markers tested	increase the expression of all the dopaminergic markers tested	decreased expression of α-synuclein	decrease the level of ROS	prevent the reduction of endogenous nitric oxide level	increase in the GSH activity	increase in the anti-oxidant GSH activity	increase/maintain the level of acetylcholine (ACh)	decrease the level of beta secretase 1 (BACE1)	increase the level of choline acetyltransferase (ChAT)	increased	increased	accumulation of α-synuclein (immunolocalization) [3]: least expression; accumulation of BACE1 protein (immunolocalization) [4]: least expression; Nurr1 gene expression (qRT-PCR) [7]: increase the expression of all the dopaminergic markers tested
CC1(C)SC2(C=C(C(C)(C)C)C(=O)C(C(C)(C)C)=C2)C2(C=C(C(C)(C)C)C(=O)C(C(C)(C)C)=C2)S1 [SPQ, 2,4,9,11-tetrakis(1,1-dimethylethyl)-14,14-dimethyl-13,15-dithiadispiro[5.0.5.3]pentadeca-1,4,8,11-tetraene-3,10-dione]	decrease the level of ROS	decreased significantly LDH activity	more pronounced	more pronounced	clear restoration of synapsin expression	clear reversal of degeneration	prevent the reduction of endogenous nitric oxide levels	maintain the mitochondrial membrane potential	significantly increased	significantly increased	decreased expression of α-synuclein	decrease the level of ROS	prevent the reduction of endogenous nitric oxide level	increase in the GSH activity	increase in the anti-oxidant GSH activity	increase/maintain the level of acetylcholine (ACh)	decrease the level of beta secretase 1 (BACE1)	increase the level of choline acetyltransferase (ChAT)	increased	increased	Synapsin I gene expression (qRT-PCR) [7]: significantly increased
CC(C)(Sc1cc(C(C)(C)C)c(O)c(C(C)(C)C)c1)Sc1cc(C(C)(C)C)c(O)c(C(C)(C)C)c1 [probucol, 2,6-ditert-butyl-4-[2-(3,5-ditert-butyl-4-hydroxyphenyl)sulfanylpropan-2-ylsulfanyl]phenol]	decrease the level of ROS	decreased significantly LDH activity	more pronounced	more pronounced	clear restoration of synapsin expression	clear reversal of degeneration	prevent the reduction of endogenous nitric oxide levels	maintain the mitochondrial membrane potential	–	clearly upregulated	decreased expression of α-synuclein	decrease the level of ROS	prevent the reduction of endogenous nitric oxide level	increase in the GSH activity	increase in the anti-oxidant GSH activity	increase/maintain the level of acetylcholine (ACh)	decrease the level of beta secretase 1 (BACE1)	increase the level of choline acetyltransferase (ChAT)	increased	increased	–
